Data reported in patent US6573258B2, “Photodynamic porphyrin antimicrobial agents” (Frontier Scientific, Inc., priority 2000, dated 2003).

Columns and labels:
[1] = Photosensitized photooxidation of NATA; settings: 10 μM NATA; for ΦSDS × 10^3, quantum yield for photo-oxidation of NATA: aqueous 2% SDS; for ΦPBS × 10^3, quantum yield for photo-oxidation of NATA: phosphate buffered solution
Experimental: The photosensitizing activity of the various porphyrins was tested by measuring their efficiency in promoting the photooxidation of N-acetyl-L-tryptophanamide (NATA, Aldrich Chem. Co.) as a model biological substrate. Toward this aim, 10 μM NATA in PBS or in water containing 2% SDS was irradiated in the presence of 5 μM porphyrin. The irradiations were performed with 515±10 nm-light isolated by means of an interference filter (Balzers, Liechtenstein), while the solution (2 ml) was magnetically stirred in a quartz cuvette of 1-cm optical path and kept at 25° C. The photosensitized modification of NATA was followed by measuring the decrease in the intensity of its fluorescence emission spectrum (300-450 nm) upon excitation with 290 nm-light at various irradiation times. Plots of in F°/F (where F° and F represent the fluorescence intensity at time 0 and t, respectively) vs. the irradiation time allowed the first-order rate constants of the photo-process to be derived.
The intensity of the incident light was measured by using Aberchrome 999P in toluene as an actinometer. Heller, EPA Newslett., 29:49-60 (1987). This parameter was used to calculate the quantum yields of NATA photooxidation sensitized by the different porphyrins.

[2] = tested on: S. aureus cells; experiment: Binding of porphyrins to bacteria cells; type: cell-based, Staphylococcus aureus; settings: 1 μM, 5 min
Experimental: (§1) Escherichia coli strain O4 (wild type), and methycillin-resistant Staphylococcus aureus, strain MRSA 110, were grown aerobically at 37° C. in brain heart infusion broth (BHI, Difco, Detroit, Mich.). The cells in the stationary phase of growth were harvested by centrifugation (2,000 g for 15 min) of the broth cultures, washed twice with 10 mM PBS at pH=7.4, containing 2.7 mM KCl and 0.14 M NaCl, and suspended in PBS at a density of 10^8-10^9 cells/ml (absorbance of about 0.7 at 650 nm). Aliquots of 5 ml of the cell suspension were incubated with 1 μM porphyrins for 5 min in the dark at room temperature. After incubation the suspensions were centrifuged and the cell pellets were collected immediately or washed with PBS and centrifuged again for one or three times.
The amount of cell-bound porphyrins was determined in the pellets after resuspension and overnight-incubation in 2% aqueous SDS. The porphyrin concentration in the cell lysate was determined by measuring the intensity of red fluorescence (600-750 nm) emitted after excitation at 420 nm and interpolating the data on a calibration plot obtained with known porphyrin concentrations. The protein content of the cell samples was determined by the method of Lowry (Lowry et al., J. Biol. Chem., 193:265-275 (1951)) and was used to express the amount of porphyrin bound to the cells as nanomoles of porphyrin/mg of protein.

[3] = tested on: E. coli cells; experiment: Decrease of cell survival (colony counting) after white-light irradiation; type: cell-based, Escherichia coli; settings: for DECREASE OF SURVIVAL (log): 5 min dark incubation, 15 min white light (150 mW/cm^2)
Experimental: as §1
(§2) The toxic effects of T4MPyP and its analogues on E. coli and S. aureus cells were evaluated by measuring the extent of growth inhibition (bacteriostatic effect) and reduction of survival (cytocidal/bacteriocidal effect) following treatment with porphyrin in the dark or upon light exposure.
(§3) In all cases, 5 ml of the cell suspension (10^8-10^9 cells/ml) were incubated for 5 min in the dark at room temperature with the selected photosensitizer at concentrations ranging between 0.5 and 10 μM. After dark-incubation, some of the cell samples were irradiated with white light (150 mW/cm^2). During irradiation, (up to 30 min) the cells were kept at 37° C. and magnetically stirred. The treated and untreated control cells were diluted with BHI and maintained at 37° C. while the absorbance of the suspension at 650 nm was monitored at predetermined time periods for determining growth curves. The percent of growth inhibition in the treated cells was calculated by the following equation: […]
(§4) where AX, and AC are the absorbances measured after 3 h incubation, respectively, for the treated and control cell suspensions, respectively, while A0 represents the initial absorbance and the AC is that of the control cell suspension after 5 hours incubation. Cell survival was determined by plating serially diluted aliquots of treated and untreated cells on brain heart agar and counting the number of colonies after 18-24 h incubation at 37° C.

[4] = Fluorescence quantum yields; type: physicochemical; settings: for ΦF (PBS), fluorescence quantum yield: in PBS; for ΦF (SDS), fluorescence quantum yield: in aqueous 2% SDS
Experimental: Ground-state absorption spectra of the porphyrins (ca. 5 μM in phosphate buffered saline (PBS, pH=7.4) were recorded with a Lambda 5 Perkin-Elmer spectrophotometer. Fluorescence spectra, corrected for the instrumental response, were recorded with a Perkin-Elmer (model LS) or a Spex (Fluorolog F112) spectrofluorimeter. Fluorescence quantum yields ((IF) of the porphyrin derivatives in PBS and in water containing 2% sodium dodecylsulfate (a detergent, hereinafter “SDS”) were determined by measuring the area of the emission spectrum (600-800 nm range, excitation at 560 nm) and using tetra-n-propylporphycene in toluene as a reference (ΦF=0.38). Braslavsky et al, J. Photochem. Photobiol. B: Biol., 40:191-198 (1997). In all cases, the absorbance of the sample and the reference solution were kept below 0.1 at the excitation wavelength to minimize inner filter effects.

[5] = Fluorescence decay times (phase-shift method); type: physicochemical; settings: ca. 5 μM, air-equilibrated buffer pH 7.4, λexc = 420 nm, λem > 600 nm; for A1, relative weight of fast component: dihydrochloride salt
Experimental: Fluorescence decay times of the porphyrin samples were measured by means of a Spex Fluorolog-τ2 spectrofluorimeter based on the phase-shift method. The frequency response curves (phase-shift and demodulation ratio vs. frequency) were globally analyzed.

[6] = tested on: S. aureus cells; experiment: Growth inhibition after 5 min incubation with porphyrin and white-light irradiation; type: cell-based, Staphylococcus aureus
Experimental: (§5) The abilities of various examples of the porphyrins of the instant invention to kill Gram-negative and Gram-positive bacteria were tested against that of T4MPyP. Each of the compounds was incubated with E. coli and S. aureus cells for 5 minutes, following which the samples were irradiated with white light for varying lengths of time.
as §1, §2
[…] After dark-incubation, some of the cell samples were irradiated with white light (150 mW/cm^2). During irradiation, (up to 30 min) the cells were kept at 37° C. and magnetically stirred. The treated and untreated control cells were diluted with BHI and maintained at 37° C. while the absorbance of the suspension at 650 nm was monitored at predetermined time periods for determining growth curves. The percent of growth inhibition in the treated cells was calculated by the following equation:
as §4

[7] = tested on: E. coli cells; experiment: Dark toxicity of porphyrins on bacteria cells; type: cell-based, Escherichia coli; settings: 10 μM, 5 min incubation in the dark
Experimental: as §2, §3, §4

[8] = tested on: E. coli cells; experiment: Growth inhibition after 5 min incubation with porphyrin and white-light irradiation; type: cell-based, Escherichia coli; settings: for concentration photoinducing significant bacteriostatic and bactericidal action: both cell strains (S. aureus and E. coli)
Experimental: as §5, §1, §2, §3, §4

[9] = tested on: S. aureus cells; experiment: Dark toxicity of porphyrins on bacteria cells; type: cell-based, Staphylococcus aureus; settings: 10 μM, 5 min incubation in the dark
Experimental: as §2, §3, §4

[10] = Triplet state properties by laser flash photolysis; type: physicochemical; settings: phosphate-buffered solution; for φT, triplet quantum yield: ε920 estimated by total depletion method
Experimental: Laser flash photolysis experiments were carried out by use of the setup previously described in Gomer, et al., with excitation wavelengths of 355 and 420 nm. Gorner, et al., Photoinduced electron transfer between styrylanthracenes and electron donors and acceptors in acetonitrile, J. Chem. Soc. Faraday Trans., vol. 88, pp. 29-34 (1992).
The transient spectra of the porphyrins in buffer solutions were recorded upon laser flash photolysis excitation at 355 and 420 nm. […] The decay (growth) of the signal (bleaching) occurred according to first-order kinetics and led to a complete recovery of the ground state with a lifetime of 91 μs. […] This also allowed the triplet quantum yield (φT) to be determined (see Table 3), after calibration of the experimental setup by use of an optically-matched solution of benzophenone in acetonitrile.

[11] = Table 5: 0.5 μM, 5 min incubation, 5 min white light (150 mW/cm^2)
[12] = 0.5 μM, incubated 5 min, white light 5 min
[13] = 0.5 μM, incubated 5 min, white light 10 min

Row | Compound | ΦSDS × 10^3, quantum yield for photo-oxidation of NATA [1] | ΦPBS × 10^3, quantum yield for photo-oxidation of NATA [1] | association with S. aureus compared with E. coli [2] | DECREASE OF SURVIVAL (log) ([3]; 1 μM porphyrin) | ΦF (PBS), fluorescence quantum yield [4] | ΦF (SDS), fluorescence quantum yield [4] | A2, relative weight of slow component [5] [%] | τ1, fluorescence decay time of fast component [5] [ns] | τ2, fluorescence decay time of slow component [5] [ns] | A1, relative weight of fast component [5] [%] | Growth inhibition (%) S. aureus [6, 11] [%] | Growth inhibition (%) E. coli [8, 12] [%] | Growth inhibition (%) E. coli [8, 11] [%] | concentration photoinducing significant bacteriostatic and bactericidal action [8] | λmax of transient spectrum [10] [nm] | λmin of transient spectrum [10] [nm] | φ×ε920 [10] [M⁻¹ cm⁻¹] | τ^N2, triplet lifetime [10] [μs] | τ^air, triplet lifetime [10] [μs] | φT, triplet quantum yield [10] | also measured
1 | 5-(4-N-hexylpyridyl)-10,15,20-tris(4-N-methylpyridyl)-21H,23H-porphine tetrachloride dihydrochloride salt [Porphyrin C6] | 0.68 ± 0.14 | 0.59 ± 0.05 | almost two-fold larger | +0.05 log | 0.018 | 0.029 | 94 | 0.9 | 5.1 | 6 | 47 | 4.8 | 5 | 10 µM | 480 | 425 | 6217 | 71 | 16 | 0.48 | DECREASE OF SURVIVAL (log) ([3]; 10 μM porphyrin): −4.23 ± 0.54 log; inhibition of bacterial cell growth in the dark [7]: barely detectable inhibition; Growth inhibition (%) E. coli ([8]; 0.5 μM, incubated 5 min, white light 30 min): 15.5%; Growth inhibition (%) E. coli ([8]; 10 μM, incubated 5 min, white light 5 min): 98.7%; Growth inhibition (%) E. coli ([8]; 10 μM, incubated 5 min, white light 10 min): 100%; Growth inhibition (%) E. coli ([8]; Table 5: 10 μM, 5 min incubation, 5 min white light (150 mW/cm^2)): 99%; inhibition of bacterial cell growth in the dark [9]: barely detectable inhibition
2 | CCCCCCCCCC[n+]1ccc(-c2c3nc(c(-c4cc[n+](C)cc4)c4ccc([nH]4)c(-c4cc[n+](C)cc4)c4nc(c(-c5cc[n+](C)cc5)c5ccc2[nH]5)C=C4)C=C3)cc1.Cl.Cl.[Cl-].[Cl-].[Cl-].[Cl-] [Porphyrin C10, 5-(4-N-decylpyridyl)-10,15,20-tris(4-N-methylpyridyl)-21H,23H-porphine tetrachloride dihydrochloride salt] | 0.64 ± 0.26 | 0.59 ± 0.05 | almost two-fold larger | −4.32 ± 0.34 log | 0.015 | 0.026 | 94 | 1.1 | 5.2 | 6 | 74 | 46.3 | 46 | ten-fold lower concentration | 490 | 420 | 10214 | 67 | 20 | 0.49 | drop in survival of E. coli cells ([3]; 1 μM porphyrin, 15 min irradiation): 4 log; Growth inhibition (%) S. aureus [6, 12]: 73.9%; Growth inhibition (%) S. aureus [6, 13]: 87.9%; Growth inhibition (%) E. coli [8, 13]: 92%; Growth inhibition (%) E. coli ([8]; 1 μM, incubated 5 min, white light 5 min): 96.1%; Growth inhibition (%) E. coli ([8]; 1 μM, incubated 5 min, white light 10 min): 100%
